# PubChem BioAssay (NCI)
# Where “and” joins values, the source holds several entries; their conditions need not be identical. Equal entries are not always repeated.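 Following 48 hours of exposure in 96-well plates, responses at five concentrations were used to interpolate endpoints linearly. GI50 marks 50% less growth. Definition used: TGI = concentration required for complete inhibition of growth.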
# What was measured:
# Assay in all cases: NCI-60 cell line screen, 48 h
# BT-549 breast = tested on: BT-549 breast
# HCT-116 colon = tested on: HCT-116 colon
# HOP-62 NSCLC = tested on: HOP-62 NSCLC
# HOP-92 NSCLC = tested on: HOP-92 NSCLC
# HT29 colon = tested on: HT29 colon
# MALME-3M melanoma = tested on: MALME-3M melanoma
# NCI-H226 lung = tested on: NCI-H226 lung
# NCI-H23 lung = tested on: NCI-H23 lung
# NCI-H460 lung = tested on: NCI-H460 lung
# SK-MEL-2 melanoma = tested on: SK-MEL-2 melanoma
SMILES,TGI (BT-549 breast) [µM],TGI (HCT-116 colon),TGI (HOP-62 NSCLC),TGI (HOP-92 NSCLC),TGI (HT29 colon),TGI (MALME-3M melanoma),TGI (NCI-H226 lung),TGI (NCI-H23 lung),TGI (NCI-H460 lung),TGI (SK-MEL-2 melanoma),GI50 (HCT-116 colon) [µM],GI50 (HOP-92 NSCLC) [µM],GI50 (HT29 colon) [µM],GI50 (MALME-3M melanoma) [µM],GI50 (NCI-H226 lung) [µM],GI50 (NCI-H23 lung) [µM],GI50 (NCI-H460 lung) [nM],GI50 (BT-549 breast) [µM],GI50 (HOP-62 NSCLC) [µM],GI50 (SK-MEL-2 melanoma) [µM]
N#Cc1c(-c2ccc([N+](=O)[O-])cc2)c2c([nH]c1=O)-c1ccccc1CCC2,85.9,> 100 µM,> 100 µM,48.4 µM,> 100 µM,> 100 µM,96.2 µM,> 100 µM,> 100 µM,> 100 µM,–,–,–,–,–,–,–,–,–,–
O=C1OC(c2ccc(O)cc2)(c2ccc(O)cc2)c2ccc(Cl)c3cccc1c23 (tested in a mixture with another compound),31.7,18.9 µM,16.2 µM,> 75 µM,23.9 µM,29.1 µM,34 µM,31 µM,23.7 µM,31.6 µM,–,–,–,–,–,–,–,–,–,–
CC[C@@]1(O)CC(OC2CC(N3CCOCC3)C(O)C(C)O2)c2c(O)c3c(c(O)c2[C@H]1O)C(=O)c1cccc(O)c1C3=O (stereo not given in full),0.349,4.27 µM and 3.5 µM,0.597 µM and 0.427 µM,0.383 µM and 0.871 µM,3.23 µM and 2.33 µM,0.258 µM and 0.339 µM,0.597 µM and 0.102 µM,1.95 µM and 1.09 µM,0.554 µM and 0.113 µM,0.959 µM and 1.5 µM,0.0149,0.0725,0.0228,0.034,0.0184,0.101,0.052,–,–,–
Cc1csc2nc(-c3cccc([N+](=O)[O-])c3)c(/C=N/N=C(N)N)n12,2.49,3.3 µM,–,1.37 µM,3.27 µM,–,–,3.49 µM,9.61 µM,3.42 µM,–,–,–,–,–,–,–,–,–,–
Cc1cc(C)c2c(=O)n(CC(O)CN(Cc3ccccc3)CC(O)Cn3sc4nc(C)cc(C)c4c3=O)sc2n1 (stereo not given),38.3,31.5 µM,30.1 µM,31.7 µM,37.4 µM,27.4 µM,33.5 µM,33.4 µM,39.3 µM,33.1 µM,–,–,–,–,–,–,–,–,–,–
C[n+]1c2ccccc2c(N=[N+]=[N-])c2ccccc21,> 10,> 10 µM,> 10 µM,–,> 10 µM,> 10 µM,> 10 µM,> 10 µM,> 10 µM,> 10 µM,–,–,–,–,–,–,–,–,–,–
N#CC1(CCCI)CCCC1,–,> 100 µM,–,35 µM,80.6 µM,80.6 µM,–,24.7 µM,25.9 µM,81.8 µM,–,–,–,–,–,–,–,–,–,–
O=C(/C=C/c1ccc([N+](=O)[O-])cc1)N1CCN(CCOC(c2ccc(F)cc2)c2ccc(F)cc2)CC1,> 100,> 100 µM,> 100 µM,83.8 µM,> 100 µM,> 100 µM,> 100 µM,> 100 µM,> 100 µM,> 100 µM,–,–,–,–,–,–,–,–,–,–
Cc1[nH]c(C(=O)Nc2ccc(C(=O)NCCN)cc2OC(C)C)c(Cl)c1Cl,33,–,4.53 µM,2.87 µM,–,3.19 µM,–,–,–,3.76 µM,–,1.3,–,1.46,–,–,–,10.6,1.95,1.99
c1ccc(CSC(SCc2ccccc2)c2cccc3ccccc23)cc1,–,> 10 µM,> 10 µM,–,> 10 µM,> 10 µM,> 10 µM,> 10 µM,> 10 µM,> 10 µM,–,–,–,–,–,–,–,–,–,–
COc1ccccc1C#C/C=C\C#Cc1ccccc1C#N,–,27.7 µM,62.5 µM,> 100 µM,> 100 µM,47.7 µM,–,25 µM,> 100 µM,51.8 µM,–,–,–,–,–,–,–,–,–,–
CC(C)CCN(CCC(C)C)CC(=O)Nc1ccc(S(=O)(=O)c2ccc(NC(=O)CN(CCC(C)C)CCC(C)C)cc2)cc1,3.36,–,–,3.64 µM,3.29 µM,3.51 µM,11.5 µM,4.84 µM,6.1 µM,6.14 µM,–,1.68,1.58,1.57,2.91,1.81,2070,1.16,–,2.11
Nc1ccc(Oc2ccc(C34CC5CC(C3)CC(c3ccc(Oc6ccc(N)cc6C(F)(F)F)cc3)(C5)C4)cc2)c(C(F)(F)F)c1,52.1,> 100 µM,44.9 µM,–,35.6 µM,58.5 µM,35.7 µM,45.6 µM,37.9 µM,28.8 µM,–,–,–,–,–,–,–,–,–,–
CCOC(=O)C1=C(C(=O)OCC)SC2(S1)C(C(=O)OCC)=C(C(=O)OCC)Sc1c2ssc1=O,4.51,2.3 µM,3.21 µM,2.81 µM,3.75 µM,4.19 µM,42.2 µM,4.02 µM,21.9 µM,5.5 µM,–,–,–,–,–,–,–,–,–,–
O=C(O)c1cc2ccccc2c(N=Nc2ccc(S(=O)(=O)Nc3ccccn3)cc2)c1O,> 100,> 100 µM,> 100 µM,> 100 µM,> 100 µM,> 100 µM,> 100 µM,–,> 100 µM,> 100 µM,–,–,–,–,–,–,–,–,–,–
Cc1c(-c2ccccc2)c(C#N)c2nnn(-c3ccc(Cl)cc3)c(=O)n12,> 100,> 100 µM,> 100 µM,> 100 µM,> 100 µM,> 100 µM,> 100 µM,> 100 µM,> 100 µM,> 100 µM,–,–,–,–,–,–,–,–,–,–
NC1CCN(c2nc3ccccc3c3c2CCCC3)CC1,25.9,14.4 µM,35.1 µM,17.2 µM,5.27 µM,19.8 µM,24.3 µM,28.2 µM,13.5 µM,10.5 µM,–,–,–,–,–,–,–,–,–,–
COC(=O)c1c(O)ccc2c1c1c(n2CCc2ccc(OC)c(OC)c2)C(=O)c2ccccc2C1=O,27.8,26.7 µM,32.9 µM,43.6 µM,10.5 µM,29.2 µM,50.3 µM,31.5 µM,19.5 µM,32.8 µM,–,–,–,–,–,–,–,–,–,–
O=C1N[C@H]2C(=O)c3c(Br)sc(Br)c3[C@H]2O1,28.3,7.33 µM,44.5 µM,28.9 µM,6.59 µM,11.3 µM,34.6 µM,17.7 µM,35 µM,31.9 µM,–,–,–,–,–,–,–,–,–,–
Cc1[nH]c2ncn3[nH]c(=S)nc3c2c1Cc1ccccc1,> 100,> 100 µM,> 100 µM,> 100 µM,> 100 µM,> 100 µM,> 100 µM,> 100 µM,> 100 µM,> 100 µM,–,–,–,–,–,–,–,–,–,–
O=C1Nc2cccc(Cl)c2/C1=C\c1cccnc1,24.4,11.3 µM,19.1 µM,68 µM,> 100 µM,24 µM,–,15.8 µM,36.5 µM,25.9 µM,–,–,–,–,–,–,–,–,–,–
CC1(C)CN(CC(=O)O)CC(Cc2ccc(OCC(=O)O)cc2)N(CC(=O)O)CC(C)(C)SS1 (stereo not given),> 100,> 100 µM,> 100 µM,> 100 µM,> 100 µM,> 100 µM,> 100 µM,> 100 µM,> 100 µM,> 100 µM,–,–,–,–,–,–,–,–,–,–
COc1cc(/C=N/NC(=O)c2c(Cl)c(Cl)c(Cl)c(Cl)c2-c2nc3ccc(C(=O)c4ccccc4)cc3[nH]2)ccc1O,> 100,> 100 µM,> 100 µM,> 100 µM,> 100 µM,> 100 µM,> 100 µM,> 100 µM,–,> 100 µM,–,–,–,–,–,–,–,–,–,–
O=C(CSCC(=O)N/N=C\c1ccc(F)cc1F)N/N=C\c1ccc(F)cc1F,–,> 100 µM,> 100 µM,> 100 µM,> 100 µM,> 100 µM,> 100 µM,> 100 µM,> 100 µM,> 100 µM,–,–,–,–,–,–,–,–,–,–
CC(C)CNC1=NCC(C)S1 (stereo not given),> 100,> 100 µM,> 100 µM,> 100 µM,> 100 µM,> 100 µM,> 100 µM,> 100 µM,> 100 µM,> 100 µM,–,–,–,–,–,–,–,–,–,–
Cc1ncc(C(=O)Nc2ccc(CN3CCN(C)CC3)c(C(F)(F)F)c2)cc1C#Cc1cnc(N)c2ccc(C#N)cc12,> 100,–,–,0.0783 µM,–,–,0.593 µM,3.28 µM,–,–,–,0.0165,–,–,0.0345,0.0959,–,0.631,–,–
c1ccc(/C(=N\Nc2nc3ccccc3[nH]2)c2ccccn2)cc1,14.5,4.52 µM,2.12 µM,0.887 µM,2.69 µM,8.31 µM,2.09 µM,14.5 µM,13.1 µM,21.4 µM,–,–,–,–,–,–,–,–,–,–
C[C@]12CC[C@H]3[C@@H](CC=C4C[C@@H](O)CC[C@@]43C)[C@@H]1C/C(=C\c1ccncc1)[C@@H]2O,19.9,51.4 µM,> 100 µM,27.6 µM,> 100 µM,62.1 µM,57.2 µM,33.6 µM,42.2 µM,45.9 µM,–,–,–,–,–,–,–,–,–,–
